Laboratory results: patent US20230339939A1 (Bayer Aktiengesellschaft, priority 2020, published 2023)
Read-outs that look alike come from different tables or passages of the source.

Tests used:
[1] = molecular target: wild-type Epidermal Growth Factor Receptor (EGFR) (Homo sapiens (Human), UniProt P00533); test: WT-EGFR Kinase Assay (TR-FRET, 2 mM ATP); assay type: biochemical
In short: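 GST-fused human EGFR fragment (R669-A1210) from Sf9 cells, typically 7.6 pg/μL, pre-incubated with compound 15 min at 22° C in Hepes pH 7.0 buffer with MgCl2, DTT and vanadate; biotinylated peptide substrate. After EDTA stop, phosphopeptide detected by TR-FRET (anti-phosphotyrosine Tb-cryptate/streptavidin-XL665), 665/620 nm emission ratio.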

CSNK1A1 = CSNK1A1 (Homo sapiens (Human), UniProt P48729); test: CSNK1A1 High ATP Assay (ADP-Glo, 1 mM ATP); assay type: biochemical; conditions: median, read-out: CSNK1A1 high ATP assay IC50 [mol/l] (median)
Description: CSNK1A1-inhibitory activity of compounds of the present invention in presence of 1 mM adenosine-tri-phosphate (ATP) was quantified employing the CSNK1A1-high-ATP-assay as described in the following paragraphs. In essence, the enzyme activity is measured by quantification of the adenosine-di-phosphate (ADP), which is generated as a co-product of the enzyme reaction, via the “ADP-Glo™ Kinase Assay” kit from the company Promega. This detection system works as follows: In a first step the ATP not consumed in the kinase reaction is quantitatively converted to cAMP employing an adenylate cyclase (“ADP-Glo-reagent”), then the adenylate cyclase is stopped and the ADP generated in the kinase reaction converted to ATP which generates in a luciferase-based reaction a glow-luminescence signal (“Kinase Detection Reagent”).
Recombinant fusion protein of N-terminal Glutathion-S-Transferase (GST) and full-length human CSNK1A1, expressed by baculovirus infected insect cells and purified via Glutathion affinity chromatography, was purchased from Life Technologies (product no. PV4174) and used as enzyme. As substrate for the kinase reaction the biotinylated peptide biotin-Ahx-KRRRAL-pS-VASLPGL (C-terminus in amide form) was used which can be purchased e.g. from the company Biosyntan (Berlin-Buch, Germany).
For the assay 50 nl of a 100 fold concentrated solution of the test compound in DMSO was pipetted into a white low volume 384-well microtiter plate (Greiner Bio-One, Frickenhausen, Germany), 2 μL of a solution of CSNK1A1 in aqueous assay buffer [50 mM HEPES pH 7.5, 10% (v/v) glycerol, 10 mM MgCl2, 50 mM NaCl, 1 mM dithiothreitol, 0.01% (w/v) bovine serum albumin, 0.01% (v/v) Triton X-100] were added and the mixture was incubated for 15 min at 22° C. to allow pre-binding of the test compounds to the enzyme before the start of the kinase reaction. […] The concentration of CSNK1A1 was adjusted depending of the activity of the enzyme lot and was chosen appropriate to have the assay in the linear range, a typical concentration is about 0.4 ng/μL. The reaction was stopped by the addition of 2.5 μL of “ADP-Glo-reagent” (1:1.5 fold diluted with water) and the resulting mixture was incubated at 22° C. for 1 h to convert the ATP not consumed in the kinase reaction completely […]. Subsequently 2.5 μL of the “kinase detection reagent” (1.2 fold more concentrated than recommended by the producer) were added, the resulting mixture was incubated at 22° C. for 1 h and then the luminescence measured with a suitable measurement instrument (e.g. Viewlux™ from Perkin-Elmer). The amount of emitted light was taken as a measure for the amount of ADP generated and thereby for the activity of the CSNK1A1.

[2] = read-out: EGFR Wildtype 2 mM ATP IC50 [mol/l] (median)

Sequence of wild-type Epidermal Growth Factor Receptor (EGFR) (P00533 669-1210): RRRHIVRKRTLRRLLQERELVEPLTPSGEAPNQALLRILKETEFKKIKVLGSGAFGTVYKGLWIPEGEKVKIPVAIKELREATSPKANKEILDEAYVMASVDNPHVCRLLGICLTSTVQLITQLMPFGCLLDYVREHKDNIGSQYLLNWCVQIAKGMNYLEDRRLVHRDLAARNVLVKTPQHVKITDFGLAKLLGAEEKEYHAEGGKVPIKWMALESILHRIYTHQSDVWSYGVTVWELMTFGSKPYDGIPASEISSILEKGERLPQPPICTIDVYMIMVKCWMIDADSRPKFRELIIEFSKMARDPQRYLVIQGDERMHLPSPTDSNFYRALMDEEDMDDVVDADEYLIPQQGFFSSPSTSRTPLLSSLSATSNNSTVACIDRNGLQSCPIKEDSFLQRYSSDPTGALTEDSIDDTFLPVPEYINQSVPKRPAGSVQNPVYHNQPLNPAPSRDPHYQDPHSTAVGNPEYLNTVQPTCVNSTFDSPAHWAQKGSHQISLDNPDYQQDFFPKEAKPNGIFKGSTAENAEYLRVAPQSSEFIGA
Sequence of CSNK1A1 (P48729 whole entry): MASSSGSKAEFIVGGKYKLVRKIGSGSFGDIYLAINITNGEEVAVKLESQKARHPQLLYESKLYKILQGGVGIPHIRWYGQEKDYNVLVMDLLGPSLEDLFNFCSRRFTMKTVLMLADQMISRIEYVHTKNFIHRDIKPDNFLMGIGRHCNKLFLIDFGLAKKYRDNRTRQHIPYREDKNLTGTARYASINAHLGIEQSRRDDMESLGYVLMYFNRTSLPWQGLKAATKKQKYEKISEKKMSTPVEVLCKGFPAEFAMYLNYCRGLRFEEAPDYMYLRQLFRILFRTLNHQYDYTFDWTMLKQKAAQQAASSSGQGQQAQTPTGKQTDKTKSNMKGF

CC(C(=O)Nc1cc(-c2[nH]c3ccc(F)nc3c2-c2ccccn2)ccn1)c1ccc(F)cc1 (single isomer, unassigned; (+)) [Example 3, (+)-2-(4-fluorophenyl)-N-{4-[5-fluoro-3-(pyridin-2-yl)-1H-pyrrolo[3,2-b]pyridin-2-yl]pyridin-2-yl}propanamide]
IC50 [1, 2]: > 20000 nM | IC50 (CSNK1A1): 12 nM

O=C(Cc1ccccc1)Nc1cc(-c2[nH]c3cccnc3c2-c2ccccn2)ccn1 [Example 46, 2-phenyl-N-(4-(3-(pyridin-2-yl)-1H-pyrrolo[3,2-b]pyridin-2-yl)pyridin-2-yl)acetamide]
IC50 [1, 2]: > 20000 nM | IC50 (CSNK1A1): 14.6 nM

CN1CCC(N(C)c2ccnc3c(-c4ccccn4)c(-c4ccnc(NC(=O)Cc5ccc(F)cc5)c4)[nH]c23)CC1 [Example 39, 2-(4-fluorophenyl)-N-(4-{7-[methyl(1-methylpiperidin-4-yl)amino]-3-(pyridin-2-yl)-1H-pyrrolo[3,2-b]pyridin-2-yl}pyridin-2-yl)acetamide]
IC50 [1, 2]: 1090 nM | IC50 (CSNK1A1): 32.9 nM

C=Cc1ccnc2c(-c3ccccn3)c(-c3ccnc(NC(=O)Cc4ccc(F)cc4)c3)[nH]c12 [Example 33, N-{4-[7-ethenyl-3-(pyridin-2-yl)-1H-pyrrolo[3,2-b]pyridin-2-yl]pyridin-2-yl}-2-(4-fluorophenyl)acetamide]
IC50 [1, 2]: 15100 nM | IC50 (CSNK1A1): 29 nM

O=C(Cc1ccc(F)cc1)Nc1cc(-c2[nH]c3cccnc3c2-c2ccc(Cl)s2)ccn1 [Example 17, N-{4-[3-(5-chlorothiophen-2-yl)-1H-pyrrolo[3,2-b]pyridin-2-yl]pyridin-2-yl}-2-(4-fluorophenyl)acetamide]
IC50 [1, 2]: > 20000 nM | IC50 (CSNK1A1): 87.3 nM

COCCc1ccnc2c(-c3ccccn3)c(-c3ccnc(NC(=O)Cc4ccc(F)cc4)c3)[nH]c12 [Example 36, 2-(4-fluorophenyl)-N-{4-[7-(2-methoxyethyl)-3-(pyridin-2-yl)-1H-pyrrolo[3,2-b]pyridin-2-yl]pyridin-2-yl}acetamide]
IC50 [1, 2]: > 20000 nM | IC50 (CSNK1A1): 31.8 nM

Cc1cc2[nH]c(-c3ccnc(NC(=O)C(C)c4ccc(F)cc4)c3)c(-c3ccccn3)c2nc1F (single isomer, unassigned; (+)) [Example 29, (+)-N-{4-[5-fluoro-6-methyl-3-(pyridin-2-yl)-1H-pyrrolo[3,2-b]pyridin-2-yl]pyridin-2-yl}-2-(4-fluorophenyl)propanamide]
IC50 ([1]; median): > 20000 nM | IC50 (CSNK1A1): 1140 nM

O=C(Cc1ccc(F)cc1)Nc1cc(-c2[nH]c3c(C4CC4)ccnc3c2-c2ccccn2)ccn1 [Example 35, N-{4-[7-cyclopropyl-3-(pyridin-2-yl)-1H-pyrrolo[3,2-b]pyridin-2-yl]pyridin-2-yl}-2-(4-fluorophenyl)acetamide]
IC50 [1, 2]: > 20000 nM | IC50 (CSNK1A1): 6.39 nM

CC(C(=O)Nc1cc(-c2[nH]c3cccnc3c2-c2ccccn2)ccn1)c1ccc(F)cc1 (single isomer, unassigned; (-)) [Example 8, (−)-2-(4-fluorophenyl)-N-{4-[3-(pyridin-2-yl)-1H-pyrrolo[3,2-b]pyridin-2-yl]pyridin-2-yl}propanamide]
IC50 [1, 2]: > 20000 nM | IC50 (CSNK1A1): 334 nM

COc1ccnc2c(-c3ccccn3)c(-c3ccnc(NC(=O)Cc4ccc(F)cc4)c3)[nH]c12 [Example 31, 2-(4-fluorophenyl)-N-{4-[7-methoxy-3-(pyridin-2-yl)-1H-pyrrolo[3,2-b]pyridin-2-yl]pyridin-2-yl}acetamide]
IC50 [1, 2]: > 20000 nM | IC50 (CSNK1A1): 5.63 nM

Cc1cc2[nH]c(-c3ccnc(NC(=O)C(C)c4ccc(F)cc4)c3)c(-c3ccccn3)c2nc1F (racemic) [Example 28, N-{4-[5-fluoro-6-methyl-3-(pyridin-2-yl)-1H-pyrrolo[3,2-b]pyridin-2-yl]pyridin-2-yl}-2-(4-fluorophenyl)propanamide]
IC50 ([1]; median): > 20000 nM | IC50 (CSNK1A1): 59.1 nM

Cc1cc2[nH]c(-c3ccnc(NC(=O)C(C)c4ccc(F)cc4)c3)c(-c3ccccn3)c2nc1F (single isomer, unassigned; (-)) [Example 30, (−)-N-{4-[5-fluoro-6-methyl-3-(pyridin-2-yl)-1H-pyrrolo[3,2-b]pyridin-2-yl]pyridin-2-yl}-2-(4-fluorophenyl)propanamide]
IC50 [1, 2]: > 20000 nM | IC50 (CSNK1A1): 23.7 nM

CC(C(=O)Nc1cc(-c2[nH]c3cc(Cl)cnc3c2-c2ccccn2)ccn1)c1ccc(F)cc1 (stereo not drawn) [Example 52, N-{4-[6-chloro-3-(pyridin-2-yl)-1H-pyrrolo[3,2-b]pyridin-2-yl]pyridin-2-yl}-2-(4-fluorophenyl)propanamide]
IC50 [1, 2]: > 20000 nM | IC50 (CSNK1A1): 382 nM

COCC(C(=O)Nc1cc(-c2[nH]c3cccnc3c2-c2ccccn2)ccn1)c1ccc(F)cc1 (racemic) [Example 43, (2RS)-2-(4-fluorophenyl)-3-methoxy-N-(4-(3-(pyridin-2-yl)-1H-pyrrolo[3,2-b]pyridin-2-yl)pyridin-2-yl)propanamide]
IC50 ([1]; median): > 20000 nM | IC50 (CSNK1A1): 40.1 nM

O=C(Cc1ccc(F)cc1)Nc1cc(-c2[nH]c3cccnc3c2-c2ncccn2)ccn1 [Example 16, 2-(4-fluorophenyl)-N-{4-[3-(pyrimidin-2-yl)-1H-pyrrolo[3,2-b]pyridin-2-yl]pyridin-2-yl}acetamide]
IC50 ([1]; median): 17500 nM | IC50 [1, 2]: > 20000 nM | IC50 (CSNK1A1): 97.9 nM

O=C(Cc1ccc(F)cc1)Nc1cc(-c2[nH]c3cccnc3c2-c2ncccn2)ccn1 [Example 51, 2-(4-fluorophenyl)-N-{4-[3-(pyrimidin-2-yl)-1H-pyrrolo[3,2-b]pyridin-2-yl]pyridin-2-yl}acetamide]
IC50 [1, 2]: > 20000 nM | IC50 (CSNK1A1): 180 nM

CN1CCN(c2ccnc3c(-c4ccccn4)c(-c4ccnc(NC(=O)Cc5ccc(F)cc5)c4)[nH]c23)CC1 [Example 38, 2-(4-fluorophenyl)-N-{4-[7-(4-methylpiperazin-1-yl)-3-(pyridin-2-yl)-1H-pyrrolo[3,2-b]pyridin-2-yl]pyridin-2-yl}acetamide]
IC50 [1, 2]: > 20000 nM | IC50 (CSNK1A1): 19.8 nM

O=C(Cc1ccc(F)cc1)Nc1cc(-c2[nH]c3cc(F)cnc3c2-c2ccccn2)ccn1 [Example 9, 2-(4-fluorophenyl)-N-{4-[6-fluoro-3-(pyridin-2-yl)-1H-pyrrolo[3,2-b]pyridin-2-yl]pyridin-2-yl}acetamide]
IC50 [1, 2]: > 20000 nM | IC50 (CSNK1A1): 33.6 nM

Cc1cc2[nH]c(-c3ccnc(NC(=O)Cc4ccc(F)cc4)c3)c(-c3ccccn3)c2nc1F [Example 27, N-{4-[5-fluoro-6-methyl-3-(pyridin-2-yl)-1H-pyrrolo[3,2-b]pyridin-2-yl]pyridin-2-yl}-2-(4-fluorophenyl)acetamide]
IC50 [1, 2]: > 20000 nM | IC50 (CSNK1A1): 11.2 nM

O=C(Cc1ccc(F)cc1)Nc1cc(-c2[nH]c3ccc(Cl)nc3c2-c2ccccn2)ccn1 [Example 23, N-{4-[5-chloro-3-(pyridin-2-yl)-1H-pyrrolo[3,2-b]pyridin-2-yl]pyridin-2-yl}-2-(4-fluorophenyl)acetamide]
IC50 [1, 2]: > 20000 nM | IC50 (CSNK1A1): 40.9 nM

O=C(Cc1ccc(Cl)cc1)Nc1cc(-c2[nH]c3cccnc3c2-c2ccccn2)ccn1 [Example 42, 2-(4-chlorophenyl)-N-{4-[3-(pyridin-2-yl)-1H-pyrrolo[3,2-b]pyridin-2-yl]pyridin-2-yl}acetamide]
IC50 [1, 2]: > 20000 nM | IC50 (CSNK1A1): 7.14 nM

COCCC(C(=O)Nc1cc(-c2[nH]c3cccnc3c2-c2ccccn2)ccn1)c1ccc(F)cc1 (racemic) [Example 44]
IC50 ([1]; median): > 20000 nM | IC50 (CSNK1A1): 59.2 nM
